Source: patent publication US20120122870A1, “Treatment Of Ischemia-Reperfusion Injury” (MUSC FOUNDATION FOR RESEARCH DEVELOPMENT, priority 2009, published 2012)
Entries after “also recorded” stand apart in the source; their conditions may differ.

Experiments:
[1] = tested on: neutrophil influx into the kidney (MPO activity); assay: Kidney myeloperoxidase (MPO) activity after severe kidney IR; format: in vivo, mice; conditions: 50 mg/kg
Protocol: Myeloperoxidase (MPO) activity, which is reflective of neutrophil influx into the tissue, is often used as measure of local inflammation, and was assayed in the kidneys of the mice from FIG. 4. […] Therefore, the level of kidney MPO and expected inflammatory damage in vehicle-treated animals correlates with the observed reduction in renal function.

TNFα mRNA = TNFα mRNA by quantitative real time PCR after hepatic warm IR; format: in vivo, mice
Protocol: ABC294640 prevents hepatic warm IR-induced tumor necrosis factor-α (TNFα) formation and NF-κB activation. Toxic cytokine formation and inflammatory processes play important roles in IR injury, and S1P is well known to promote inflammation. Accordingly, we investigated whether ABC294640 affects the expression of the pro-inflammatory cytokine TNFα after IR. Livers were harvested at 2 h after reperfusion and TNFα mRNA was detected by quantitative real time PCR. TNFα mRNA increased ˜10-fold after IR (FIG. 15, upper). ABC294640 blunted this increase in TNFα mRNA by ˜50%. NF-κB activation is involved in inflammatory cytokine formation and upregulation of adhesion molecules. After IR, phosphorylation of p65 subunit of NF-κB increased markedly, indicating NF-κB activation. This effect was also blunted by ABC294640 (FIG. 15 lower) which is consistent with our previous studies of NF-κB activation. Quantitative real-time PCR (qPCR): Total RNA in liver homogenates was isolated using a QIAGEN RNeasy kit and quantified using a NanoDrop ND-1000 Spectrophotometer. cDNAs of mRNA of interest were generated using the Bio-Rad iScript cDNA Synthesis kit. qPCR was performed on a BioRAD MyiQ single-color real-time PCR detection system. The primers used for each gene were designed using Primer 3 software. […] Data were analyzed with MyiQ software. […]

[2] = tested on: PMN infiltration in liver; assay: PMN infiltration (MPO immunohistochemistry) after hepatic warm IR; format: in vivo, mice
Protocol: ABC294640 prevents hepatic warm ischemia-reperfusion (IR)-induced polymorphonuclear leukocyte (PMN) infiltration in mice. Hepatic warm ischemia was induced by clamping the mouse hepatic artery and portal vein to the upper three lobes of the liver as described in the original application. One hour later, the ischemic liver was reperfused by opening the vascular clamp. Livers were collected 6 h later and myeloperoxidase (MPO), a marker of PMNs, was detected immunohistochemically. MPO-positive cells were counted in 10 fields selected randomly per slide in a blinded manner to assess PMN infiltration. MPO-positive cells were ˜1/high power field (hpf) in livers from sham-operated mice (FIG. 16). Six hours after reperfusion, MPO-positive cells increased almost 10-fold, indicating pronounced inflammation. […] ABC294640 (50 mg/kg, i.g. once) decreased PMN infiltration by ˜70% at 6 h after reperfusion (FIG. 16). Livers from mice exposed to one dose of ABC294640 had lower PMN infiltration compared to the untreated mice even at 2 weeks after reperfusion. […] Immunohistochemistry: Sections were deparaffinized in xylene, rehydrated in a series of graded alcohol concentrations and placed in phosphate buffered saline with 0.1% Tween-20. […] Appropriate peroxidase-conjugated secondary antibodies (DAKO Corp.) were then applied, followed by 3,3′-diaminobenzidine chromagen as the peroxidase substrate. A light counterstain of Meyer's hematoxylin was applied.

[3] = tested on: non-heart-beating liver transplantation in Lewis rats; assay: Non-heart-beating donor liver transplantation, graft necrosis (H+E); format: in vivo; conditions: 30-min aorta clamping, 4-hour cold storage; grafts harvested 18 h after implantation
Source text: ABC294640 improves the outcome of non-heart-beating liver transplantation. The severe donor organ shortage could be reduced by the use of marginal livers for transplantation. Currently only livers from brain-dead, heart-beating donors (HBD) are used for transplantation since liver grafts from non-heart-beating donors frequently fail after transplantation. Development of a method to improve survival of grafts from NHBD is critical to expand the usable liver donor pool. Grafts from NHBD experience longer warm ischemia before liver retrieval, which likely upregulates SK to a higher extent compared to those from HBD. Therefore, we performed a pilot study to test if ABC294640 improves the outcome of non-heart-beating liver transplantation. Livers were explanted from Lewis rats after 30-min of aorta clamping to mimic non-heart-beating donation and implanted after 4-hour storage in UW solution at 0-1° C. […] In cold-stored, untransplanted livers from NHBD, although some cell swelling was observed, no necrosis occurred (FIG. 19, upper right). After transplantation of livers from HBD, small focal necrosis occurred (FIG. 19, middle left). […] Necrotic areas in sections were quantified by image analysis using an Image-1/AT image acquisition and analysis system (Universal Imaging Corp., West Chester, Pa.) incorporating an Axioskop 50 microscope (Carl Zeiss, Inc., Thornwood, NY) and a 10× objective lens.

O=C(NCc1ccncc1)C12CC3CC(C1)CC(c1ccc(Cl)cc1)(C3)C2 [ABC294640, 3-(4-chlorophenyl)-N-(pyridin-4-ylmethyl)adamantane-1-carboxamide]
increase in kidney MPO activity (neutrophil infiltration) [1]: reduces neutrophil infiltration; also recorded: completely blocked | TNFα formation after hepatic IR (in words) (TNFα mRNA; livers harvested 2 h after IR): blunts TNFα formation | blunting of the increase in TNFα mRNA (TNFα mRNA; livers harvested 2 h after reperfusion): ~50% | decrease of PMN infiltration (MPO-positive cells) ([2]; 50 mg/kg, i.g. once, 6 h after reperfusion): ~70% | PMN infiltration after hepatic IR (in words) ([2]; livers harvested 6 h or 2 weeks after IR): inhibits PMN infiltration | PMN infiltration compared to untreated mice ([2]; one dose, 2 weeks after reperfusion): lower | necrotic areas in transplanted livers from non-heart-beating donors [3]: substantially decreased; also recorded: attenuates necrosis
